{"source": "patent US20230117947A1", "about": "“Seed Treatment Methods and Compositions” (Novozymes BIOAG A/S, priority 2011, published 2023)", "type_in_all_cases": "in vivo", "key": {"[1]": {"test_system": "soybean seed (Stine S2118)", "assay": "Field trial (Example 1): grain yield from treated soybean seed, Whitewater, Wis.", "conditions": "for GRAIN YIELD @ 13%: 4.8 fl oz/cwt, 13% seed moisture", "protocol": "A field trial was conducted to evaluate embodiments of the present invention on grain yield when applied on soybean seed. The field trial site was located near Whitewater, Wis. and characterized by Milford silty clay loam soil.\nThe plant signal molecules used in the trial were Optimize®, a non-commercial grade of Optimize® (NI-50S-1), pure LCO-V (C18:1, MeFuc)(NI-50GREN-1) and a non-commercial grade of LCO-V (C18:1, MeFuc)(NI-50S-2CF). The soybean seed used in the study was Stine S2118. The plant signal molecules were sprayed onto seeds with/without dilution at a rate of 4.8 fl oz/cwt.\nThe study was conducted in a randomized complete block design, with a plot size of 10 feet by 50 feet (0.011 acres), with 7.5-inch row spacing. Four replications were conducted. Seed were treated with the plant signal molecules 4.5 or 5 months prior to planting and just prior to planting, and were planted at a depth of 1 inch and at a seedling rate of 225,000 seeds per acre using a John Deere 750 NT grain drill. The pesticides Extreme® and AMPS® were both applied 11 days prior to planting (pre-emergence) at rates of 3.0 pt and 2.5 lb, respectively. Assure II®, Roundup WeatherMax® and AMPS® were all applied 46-days post-planting (post-emergent), at rates of 6.0 oz, 21 oz and 2.5 lb, respectively. Plants were harvested 4 months and 20 days after planting.\nThe Control seed was treated with an amount (wt) of water, corresponding to the amount (wt) of the experimental signal molecule composition (signal molecule+carrier). The Control seed was stored under the same conditions as the experimental seed prior to planting and planted at the same time as the experimental seed in the same soil."}, "[2]": {"test_system": "soybean seed (Stine 52118)", "assay": "Field trial (Example 2): grain yield from treated soybean seed, Whitewater, Wis.", "conditions": "for GRAIN YIELD @ 13%: 4.8 fl oz/cwt, 13% seed moisture", "protocol": "A soybean trial was conducted to evaluate embodiments of the present invention on grain yield when applied on soybean seed. The field trial site was located near Whitewater, Wis. and characterized by Milford silty clay loam soil. […] The plant signal molecules used in the trial were same as in Example 1. The soybean seed used in the study was Stine 52118. The plant signal molecules were sprayed onto seeds with/without dilution at a rate of 4.8 fl oz/cwt. The study was conducted in a randomized complete block design, with a plot size of 10 feet by 50 feet (0.011 acres), with 7.5-inch row spacing. Four replications were conducted. Seed were treated with the plant signal molecules 4.5 or 5 months prior to planting and just prior to planting, and were planted at a depth of 1 inch and at a seedling rate of 225,000 seeds per acre using a John Deere 750 NT grain drill. The pesticides Extreme® and AMPS® were both applied 10 days prior to planting (pre-emergence) at rates of 3.0 pt and 2.5 lb, respectively. Assure II®, Roundup WeatherMax® and AMPS® were all applied 45-days post-planting (post-emergent), at rates of 6.0 oz, 21 oz and 2.5 lb, respectively. Plants were harvested 4 months and 21 days after planting. The Control seed was treated with an amount (wt) of water, corresponding to the amount (wt) of the experimental signal molecule composition (signal molecule+carrier). The Control seed was stored under the same conditions as the experimental seed prior to planting and planted at the same time as the experimental seed in the same soil."}, "Soybean seeds": {"test_system": "Soybean seeds", "assay": "Greenhouse test (Example 3): root length and root volume of seedlings from stored treated seed (Winrhizo scanner)", "conditions": "for % increase in root length / % increase in root vol.: versus Control; for Root Vol. / Root length: 10^−7M, stored at 15° C., harvested after 10 days", "protocol": "Soybean seeds treated with 10^−7M pure LCO-V (C18:1, MeFuc) and stored at 15° C. Treated seeds and non-treated seeds (control) were planted 1 and 12 months after treatment in greenhouse pots containing sand:perlite (1:1 mixture). Seedlings were grown for 10 days after seed plantings then seedlings were harvested, their roots cleaned and measured on the Winrhizo® scanner. The Control seed was treated with an amount (wt) of water, corresponding to the amount (wt) of the experimental signal molecule composition (signal molecule+carrier). The Control seed was stored under the same conditions as the experimental seed prior to planting and planted at the same time as the experimental seed in the same soil."}, "[3]": {"conditions": "5 months pre-planting (Group 5) versus at planting (Group 4)"}, "[4]": {"conditions": "seed treated 5 months prior to planting"}, "[5]": {"conditions": "planted 1 month after treatment"}}, "note": "Marks after values point to notes of the source that are not given here."}
{"substance": "LCO-V (C18:1, MeFuc) [NI-50GREN-1]", "values": [{"measurement": "increase in soybean yield", "setting": "[1]; [3]", "value": 8.3, "unit": "bushels/acre"}, {"measurement": "GRAIN YIELD @ 13%", "setting": "[1]; [4]", "value": 70.5, "unit": "bushels/acre"}, {"measurement": "GRAIN YIELD @ 13%", "setting": "[1]; seed treated at planting", "value": 62.2, "unit": "bushels/acre"}, {"measurement": "decrease in soybean yield", "setting": "[2]; [3]", "value": 1.8, "unit": "bushels/acre"}, {"measurement": "GRAIN YIELD @ 13%", "setting": "[2]; [4]", "value": 64.0, "unit": "bushels/acre"}, {"measurement": "GRAIN YIELD @ 13%", "setting": "[2]; seed treated at planting", "value": 65.8, "unit": "bushels/acre"}, {"measurement": "% increase in root length", "setting": "Soybean seeds; 1 month after treatment", "value": 5.46, "unit": "%"}, {"measurement": "% increase in root vol.", "setting": "Soybean seeds; 1 month after treatment", "value": 2.86, "unit": "%"}, {"measurement": "% increase in root length", "setting": "Soybean seeds; 1 yr after treatment", "value": 37.92, "unit": "%"}, {"measurement": "% increase in root vol.", "setting": "Soybean seeds; 1 yr after treatment", "value": 34, "unit": "%"}, {"measurement": "Root Vol.", "setting": "Soybean seeds; [5]", "value": 0.468, "unit": "cm^3"}, {"measurement": "Root length", "setting": "Soybean seeds; [5]", "value": "135* cm"}, {"measurement": "Root Vol.", "setting": "Soybean seeds; planted 1 yr after treatment", "value": "0.540* cm^3"}, {"measurement": "Root length", "setting": "Soybean seeds; planted 1 yr after treatment", "value": "159.3* cm"}]}
